Reference: ChEMBL document CHEMBL5137086, “Discovery of 1-(Hetero)aryl-β-carboline Derivatives as IDO1/TDO Dual Inhibitors with Antidepressant Activity” (J Med Chem, 2022)

How the values were obtained:
[1] = target: T1, Tryptophan 2,3-dioxygenase (Homo sapiens, UniProt P48775); experiment: Inhibition of TDO (unknown origin) assessed as reduction in N-formylkynurenine formation using L-tryptophan as substrate at 50 uM incubated for 75 mins by UV absorbance based analysis relative to control
Target sequence in this assay (P48775 whole entry, looked up): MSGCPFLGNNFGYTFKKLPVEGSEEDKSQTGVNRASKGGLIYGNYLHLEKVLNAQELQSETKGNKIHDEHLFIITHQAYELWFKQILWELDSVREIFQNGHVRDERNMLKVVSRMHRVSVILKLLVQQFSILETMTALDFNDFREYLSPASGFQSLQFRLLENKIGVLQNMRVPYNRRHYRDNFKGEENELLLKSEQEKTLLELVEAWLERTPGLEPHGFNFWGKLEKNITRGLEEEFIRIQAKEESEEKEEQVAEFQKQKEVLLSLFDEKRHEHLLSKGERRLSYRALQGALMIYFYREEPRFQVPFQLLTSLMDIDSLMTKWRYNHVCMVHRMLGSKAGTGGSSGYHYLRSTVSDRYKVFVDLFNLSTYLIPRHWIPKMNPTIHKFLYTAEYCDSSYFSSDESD

[2] = target: T2, Indoleamine 2,3-dioxygenase 1 (Homo sapiens, UniProt P14902); experiment: Inhibition of IDO1 (unknown origin) assessed as reduction in kynurenine production using L-tryptophan as substrate at 50 uM incubated for 1 hr by absorbance based microplate reader analysis relative to control
Target sequence in this assay (P14902 whole entry, looked up): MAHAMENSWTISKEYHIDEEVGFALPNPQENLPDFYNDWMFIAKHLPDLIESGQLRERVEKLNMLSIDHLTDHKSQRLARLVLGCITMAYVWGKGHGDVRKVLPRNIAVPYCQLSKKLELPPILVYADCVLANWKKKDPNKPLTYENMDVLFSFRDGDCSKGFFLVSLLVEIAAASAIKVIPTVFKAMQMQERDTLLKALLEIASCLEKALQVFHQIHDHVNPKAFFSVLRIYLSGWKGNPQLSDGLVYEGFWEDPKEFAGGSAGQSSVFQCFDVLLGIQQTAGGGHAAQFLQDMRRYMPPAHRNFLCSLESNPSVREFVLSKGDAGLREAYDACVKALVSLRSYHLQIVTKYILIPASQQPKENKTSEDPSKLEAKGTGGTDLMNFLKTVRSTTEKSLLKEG

[3] = target: T2, Indoleamine 2,3-dioxygenase 1; experiment: Inhibition of IDO1 (unknown origin) assessed as reduction in kynurenine production using L-tryptophan as substrate incubated for 1 hr by absorbance based microplate reader analysis
Target sequence in this assay (P14902 whole entry): as the sequence (P14902 whole entry, looked up) above

[4] = target: T1, Tryptophan 2,3-dioxygenase; experiment: Inhibition of TDO (unknown origin) assessed as reduction in N-formylkynurenine formation using L-tryptophan as substrate incubated for 75 mins by UV absorbance based analysis
Target sequence in this assay (P48775 whole entry): as the sequence (P48775 whole entry, looked up) above

Structure (SMILES) | inhibition [1] | inhibition [2] | IC50 [3] | IC50 [4]
Oc1ccc(-c2nccc3c2[nH]c2ccccc23)cc1 | 4% | 24% |  | 
c1csc(-c2nccc3c2[nH]c2ccccc23)c1 | 82% | 61% | > 50 µM | 10.8 µM
c1ccc2c(c1)[nH]c1c(-c3cc[nH]n3)nccc12 | 7% | 34% |  | 
c1ccc2c(c1)[nH]c1c(-c3ncc[nH]3)nccc12 | 4% | 26% |  | 
Fc1ccc(-c2nccc3c2[nH]c2ccccc23)cc1 | 3% | 27% |  | 
N#Cc1cccc(-c2nccc3c2[nH]c2ccccc23)c1 | 78% | 66% | > 50 µM | 15.3 µM
N#Cc1ccc(-c2nccc3c2[nH]c2ccccc23)cc1 | 75% | 53% | > 50 µM | 12 µM
Clc1ccc(-c2nccc3c2[nH]c2ccccc23)cc1 | 81% | 86% | 7.58 µM | 8.29 µM
c1ccc2c(c1)[nH]c1c(-c3ccoc3)nccc12 | 92% | 5% |  | 1.14 µM
FC(F)(F)c1ccc(-c2nccc3c2[nH]c2ccccc23)cc1 | 5% | 13% |  | 
Clc1cccc(-c2nccc3c2[nH]c2ccccc23)c1 | 88% | 55% | > 50 µM | 13.4 µM
Brc1ccc(-c2nccc3c2[nH]c2ccccc23)cc1 | 5% | 51% | > 50 µM | 
c1cncc(-c2nccc3c2[nH]c2ccccc23)c1 | 89% | 26% |  | 2.14 µM
O=C1CC(c2c[nH]c3ccc(F)cc23)C(=O)N1 (stereo unspecified) |  | 92% |  | 
c1ccc2c(c1)[nH]c1c(-c3cnn[nH]3)nccc12 | 77% | 91% | 13.9 µM | 19.5 µM
c1ccc(-c2nccc3c2[nH]c2ccccc23)cc1 | 86% | 7% |  | 7.24 µM
c1ccc2c(c1)[nH]c1c(-c3ccncc3)nccc12 | 36% | 46% |  | 
c1coc(-c2nccc3c2[nH]c2ccccc23)c1 | 37% | 33% |  | 
O=[N+]([O-])c1cccc(-c2nccc3c2[nH]c2ccccc23)c1 | 6% | 96% | 8.28 µM | 
Clc1cc(Cl)cc(-c2nccc3c2[nH]c2ccccc23)c1 | 8% | 75% | 16.5 µM | 
c1ccc2c(c1)[nH]c1c(-c3cscn3)nccc12 | 4% | 3% |  | 
Fc1cc(-c2nccc3c2[nH]c2ccccc23)ccc1Br | 4% | 71% | 32.7 µM | 
c1ccc2c(c1)[nH]c1c(-c3ccsc3)nccc12 | 94% | 34% |  | 0.81 µM
Cc1nccc2c1[nH]c1ccccc12 [HARMAN] | 85% | 34% |  | 6.31 µM
Brc1cccc(-c2nccc3c2[nH]c2ccccc23)c1 | 65% | 93% | 4.95 µM | 20.3 µM
c1ccc2c(c1)[nH]c1cnccc12 [NORHARMANE] | 86% | 48% |  | 1.2 µM
O=[N+]([O-])c1ccc(-c2nccc3c2[nH]c2ccccc23)cc1 | 3% | 94% | 8.44 µM | 
Fc1cccc(-c2nccc3c2[nH]c2ccccc23)c1 | 86% | 28% |  | 10.9 µM
c1ccc2c(c1)[nH]c1c(-c3nccs3)nccc12 | 2% | 5% |  | 
FC(F)(F)c1cccc(-c2nccc3c2[nH]c2ccccc23)c1 | 88% | 9% |  | 5.39 µM
